Data from patent publication US6737383B1, “Herbicidal oxadiazolidines” (priority 1999, dated 2004).

Assays:
[1] = test system: bedstraw; experiment: Test B pre/postemergence bedstraw; type: in vivo, Galium aparine; conditions: Postemergence, Rate 250 g/ha; scale 0 to 10, 0 is no effect, 10 is complete control
Procedure, shortened: (§1)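 Herbicidal effect was estimated by eye on a ten-point control scale after plants spent twelve to sixteen days in a greenhouse following soil or foliar treatment. Foliar sprays targeted plants at one to four leaves; all doses were formulated in a non-phytotoxic solvent with surfactant.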

[2] = test system: blackgrass; experiment: Test B pre/postemergence blackgrass; type: in vivo, Alopecurus myosuroides
Procedure, shortened: as §1

[3] = test system: surinam grass; experiment: Test B pre/postemergence surinam grass; type: in vivo, Brachiaria decumbens
Procedure, shortened: as §1

[4] = test system: cocklebur; experiment: Test B pre/postemergence cocklebur; type: in vivo, Xanthium strumarium
Procedure, shortened: as §1

[5] = test system: corn; experiment: Test B pre/postemergence corn; type: in vivo, Zea mays
Procedure, shortened: as §1

[6] = test system: crabgrass; experiment: Test B pre/postemergence crabgrass; type: in vivo, Digitaria sanguinalis
Procedure, shortened: as §1

[7] = test system: giant foxtail; experiment: Test B pre/postemergence giant foxtail; type: in vivo, Setaria faberii
Procedure, shortened: as §1

[8] = test system: morningglory; experiment: Test B pre/postemergence morningglory; type: in vivo, Ipomoea hederacea
Procedure, shortened: as §1

[9] = test system: pigweed; experiment: Test B pre/postemergence pigweed; type: in vivo, Amaranthus retroflexus
Procedure, shortened: as §1

[10] = test system: rape; experiment: Test B pre/postemergence rape; type: in vivo, Brassica napus
Procedure, shortened: as §1

[11] = test system: soybean; experiment: Test B pre/postemergence soybean; type: in vivo, Glycine max
Procedure, shortened: as §1

[12] = test system: sugar beet; experiment: Test B pre/postemergence sugar beet; type: in vivo, Beta vulgaris
Procedure, shortened: as §1

[13] = test system: velvetleaf; experiment: Test B pre/postemergence velvetleaf; type: in vivo, Abutilon theophrasti
Procedure, shortened: as §1

[14] = test system: wheat; experiment: Test B pre/postemergence wheat; type: in vivo, Triticum aestivum
Procedure, shortened: as §1

[15] = test system: wild oat; experiment: Test B pre/postemergence wild oat; type: in vivo, Avena fatua
Procedure, shortened: as §1

[16] = test system: purple nutsedge; experiment: Test B pre/postemergence purple nutsedge; type: in vivo, Cyperus rotundus
Procedure, shortened: as §1

[17] = test system: rice; experiment: Test B flood test rice; type: in vivo, Oryza sativa; conditions: Pre-emergence
Procedure, shortened: (§2)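 Read-out is a visual response score from 0 (no effect) to 10 (complete control), assigned by comparison with untreated controls. Treatment was applied at the 2-leaf stage, and plants stayed in the greenhouse for twelve to sixteen days before scoring.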

[18] = test system: smallflower flatsedge; experiment: Test B flood test smallflower flatsedge; type: in vivo, Cyperus difformis; conditions: Pre-emergence
Procedure, shortened: as §2

[19] = test system: duck salad; experiment: Test B flood test duck salad; type: in vivo, Heteranthera limosa; conditions: Pre-emergence
Procedure, shortened: as §2

[20] = test system: bamyardgrass; experiment: Test B flood test barnyardgrass; type: in vivo, Echinochloa crus-galli; conditions: Pre-emergence
Procedure, shortened: as §2

[21] = Postemergence, Rate 250 g/ha, scale 0 to 10, 0 is no effect, 10 is complete control
[22] = Preemergence, Rate 62 g/ha, scale 0 to 10 (0 no effect, 10 complete control)
[23] = Preemergence, Rate 125 g/ha, scale of 0 to 10 where 0 is no effect and 10 is complete control
[24] = Preemergence, Rate 250 g/ha, scale of 0 to 10 where 0 is no effect and 10 is complete control
[25] = Preemergence, Rate 500 g/ha, scale of 0 to 10 where 0 is no effect and 10 is complete control
[26] = Rate 62 g/ha, Postemergence, scale of 0 to 10 where 0 is no effect and 10 is complete control
[27] = Postemergence, Rate 125 g/ha, scale 0 to 10, 0 is no effect, 10 is complete control
[28] = Postemergence, Rate 500 g/ha, scale of 0 to 10 where 0 is no effect and 10 is complete control
[29] = Preemergence, Rate 250 g/ha, scale 0 to 10, 0 is no effect, 10 is complete control
[30] = Rate 62 g/ha, flood test species, visual evaluation after twelve to sixteen days
[31] = Rate 250 g/ha, flood-test species, scale 0 to 10, 0 is no effect, 10 is complete control
[32] = Rate 500 g/ha, flood test species, scale 0 to 10 (0 no effect, 10 complete control)

CC(C)Cn1c(=O)on(C(=O)N(c2ccc(F)cc2F)C(C)C)c1=O [Compound 394]
Plant response rating, Bedstraw [1]: 5 | Plant response rating, Blackgrass [2, 21]: 9 | Plant response rating, Blackgrass [2, 22]: 7 | Plant response rating, Blackgrass [2, 23]: 8 | Blackgrass plant response rating [2, 24]: 10 | Blackgrass plant response rating [2, 25]: 10 | Blackgrass plant response rating [2, 26]: 2 | Plant response rating, B. signalgrass [3, 27]: 1 | Plant response rating, B. signalgrass [3, 21]: 2 | B. signalgrass plant response rating [3, 28]: 9 | Plant response rating, B. signalgrass [3, 22]: 2 | Plant response rating, B. signalgrass [3, 23]: 5 | B. signalgrass plant response rating [3, 24]: 8 | B. signalgrass plant response rating [3, 25]: 10 | B. signalgrass plant response rating [3, 26]: 0 | Plant response rating, Cocklebur [4, 27]: 0 | Plant response rating, Cocklebur [4, 21]: 0 | Cocklebur plant response rating [4, 28]: 4 | Plant response rating, Cocklebur [4, 22]: 0 | Plant response rating, Cocklebur [4, 23]: 0 | Cocklebur plant response rating [4, 29]: 0 | Cocklebur plant response rating [4, 25]: 0 | Cocklebur plant response rating [4, 26]: 0 | Plant response rating, Corn [5, 27]: 0 | Plant response rating, Corn [5, 21]: 0 | Corn plant response rating [5, 28]: 0 | Plant response rating, Corn [5, 22]: 0 | Plant response rating, Corn [5, 23]: 0 | Corn plant response rating [5, 29]: 3 | Corn plant response rating [5, 25]: 5 | Corn plant response rating [5, 26]: 0 | Plant response rating, Crabgrass [6, 27]: 2 | Plant response rating, Crabgrass [6, 21]: 8 | Crabgrass plant response rating [6, 28]: 9 | Plant response rating, Crabgrass [6, 22]: 9 | Plant response rating, Crabgrass [6, 23]: 10 | Crabgrass plant response rating [6, 29]: 10 | Crabgrass plant response rating [6, 25]: 10 | Crabgrass plant response rating [6, 26]: 2 | Plant response rating, Giant foxtail [7, 27]: 7 | Plant response rating, Giant foxtail [7, 21]: 8 | Giant foxtail plant response rating [7, 28]: 9 | Plant response rating, Giant foxtail [7, 22]: 9 | Plant response rating, Giant foxtail [7, 23]: 10 | Giant foxtail plant response rating [7, 29]: 10 | Giant foxtail plant response rating [7, 25]: 10 | Plant response rating, Morningglory [8, 21]: 6 | Morningglory plant response rating [8, 28]: 7 | Plant response rating, Morningglory [8, 22]: 0 | Plant response rating, Morningglory [8, 23]: 0 | Morningglory plant response rating [8, 29]: 0 | Morningglory plant response rating [8, 25]: 2 | Morningglory plant response rating [8, 26]: 0 | Plant response rating, Redroot pigweed [9, 21]: 2 | Redroot pigweed plant response rating [9, 28]: 7 | Plant response rating, Redroot pigweed [9, 22]: 1 | Plant response rating, Redroot pigweed [9, 23]: 2 | Redroot pigweed plant response rating [9, 29]: Redroot pigwee 6 | Redroot pigweed plant response rating [9, 25]: 10 | Redroot pigweed plant response rating [9, 26]: 0 | Plant response rating, Rape [10, 21]: 0 | Plant response rating, Rape [10, 22]: 0 | Plant response rating, Rape [10, 23]: 2 | Rape plant response rating [10, 29]: 7 | Rape plant response rating [10, 25]: 9 | Rape plant response rating [10, 26]: 0 | Plant response rating, Soybean [11, 21]: 5 | Soybean plant response rating [11, 28]: 5 | Plant response rating, Soybean [11, 22]: 0 | Soybean plant response rating [11, 29]: 1 | Soybean plant response rating [11, 25]: 2 | Soybean plant response rating [11, 26]: 3 | Plant response rating, Sugarbeets [12, 21]: 1 | Sugarbeets plant response rating [12, 28]: 5 | Plant response rating, Sugarbeets [12, 22]: 0 | Plant response rating, Sugarbeets [12, 23]: 3 | Sugarbeets plant response rating [12, 29]: 4 | Sugarbeets plant response rating [12, 25]: 7 | Sugarbeets plant response rating [12, 26]: 0 | Plant response rating, Velvetleaf [13, 21]: 0 | Velvetleaf plant response rating [13, 28]: 3 | Plant response rating, Velvetleaf [13, 22]: 1 | Plant response rating, Velvetleaf [13, 23]: 5 | Velvetleaf plant response rating [13, 29]: 7 | Velvetleaf plant response rating [13, 25]: 7 | Velvetleaf plant response rating [13, 26]: 0 | Wheat plant response rating [14, 28]: 4 | Plant response rating, Wheat [14, 22]: 0 | Plant response rating, Wheat [14, 23]: 1 | Wheat plant response rating [14, 29]: 6 | Wheat plant response rating [14, 25]: 9 | Wheat plant response rating [14, 26]: 0 | Wild oats plant response rating [15, 28]: 6 | Plant response rating, Wild oats [15, 22]: 4 | Plant response rating, Wild oats [15, 23]: 6 | Wild oats plant response rating [15, 29]: 10 | Wild oats plant response rating [15, 25]: 10 | Wild oats plant response rating [15, 26]: 0 | Plant response rating, Nutsedge [16, 21]: 0 | Plant response rating, Nutsedge [16, 22]: 0 | Plant response rating, Nutsedge [16, 23]: 0 | Nutsedge plant response rating [16, 29]: 2 | Nutsedge plant response rating [16, 25]: 6 | Nutsedge plant response rating [16, 26]: 0 | Plant response rating, Rice (0 to 10 scale, 0 is no effect, 10 is complete control) [17, 30]: 1 | Rice plant response rating [17, 31]: 1 | Rice plant response rating [17, 32]: 1 | Plant response rating, S. Flatsedge (0 to 10 scale, 0 is no effect, 10 is complete control) [18, 30]: 4 | S. Flatsedge plant response rating [18, 31]: 8 | S. Flatsedge plant response rating [18, 32]: 8 | Plant response rating, Ducksalad (0 to 10 scale, 0 is no effect, 10 is complete control) [19, 30]: 0 | Ducksalad plant response rating [19, 31]: 3 | Ducksalad plant response rating [19, 32]: 3 | Plant response rating, Barnyardgrass (0 to 10 scale, 0 is no effect, 10 is complete control) [20, 30]: 0 | Barnyardgrass plant response rating [20, 31]: 6 | Barnyardgrass plant response rating [20, 32]: 8
